How the values were obtained:
rat mast cells = test: Rat Mast Cell (RMC) histamine release from passively sensitized rat mast cells; assay type: cell-based; conditions: passively sensitized in vitro with anti-ovalbumin serum, antigen-induced histamine release, 0.1% DMSO, read-out: RMC I50
Source text: The compounds of the present invention are useful as intermediates for making benzo-bis-oxazoles. Further, the compounds of the present invention are useful as antiallergic agents as evidenced by their activity as blockers of histamine release from passively sensitized rat mast cells (RMC) and in the rat passive cutaneous test (PCA). A brief description of the test methods follow.
Rat Mast Cell (RMC) Studies--(Based on E. Kusner, B. Dabnick, D. F. Herzig, J. Pharm. Exp., Ther., 1973, 184, 41.) Rat mast cells were passively sensitized in vitro with anti-ovalbumin serum. Following a 15 minute incubation, the spontaneous histamine release (SR) in the absence of antigent and AIR (in the presence of antigen) were measured fluorometrically with a Technicon Auto Analyzer®.

[1] = tested on: rat passive cutaneous anaphylaxis (blued wheal area); test: Passive cutaneous anaphylaxis in the rat (PCA); assay type: in vivo, rat (male, Sprague Dawley); conditions: 125 mg/kg p.o.; antigen challenge ten minutes after oral administration
Source text: Passive Cutaneous Anaphalixis in the Rat (Based on I. Mota, Life Science, 1963, F 465; and Z. Ovary and O. G. Bier, Proc. Soc. Exp. Biol. and Med., 1952, 81, 584)--Male, Sprague Dawley rats were sensitized at dorsal sites by intradermal injection of syngeneic serum containing IgE anti-ovalbumin.Forty-eight hours later, groups of four rats were given either vehicle (1% methylcellulose) or graded does of compound. Either ten minutes after oral drug administration or five minutes after i.p. drug dosing, rats were challenged intravenously with antigen (ovalbumin) in 1% Evans blue dye. Thirty minutes after antigen challenge, the rats were sacrificed by cervical dislocations, the dorsal skins were reflected and blued wheal areas measured. Mean values±S.D. for wheal areas in control and drug-treated groups were detemined and compared statistically using Student's t-test.

| Compound | IC50 (rat mast cells) | PCA % Inhibition [1] |
| --- | --- | --- |
| O=c1[nH]c2cc3[nH]c(=O)c(=O)oc3cc2oc1=O [Example 1F, Benzo[1,2-b;5,4-b]-bis-[1,4]oxazine-2,3,7,8-tetrone] | 3000 nM | 26% |
| O=c1[nH]c2cc3oc(=O)c(=O)[nH]c3cc2oc1=O [Example 2E, Benzo(1,2-b;4,5-b)-bis-[1,4]oxazine-2,3,7,8-tetrone] | 1200 nM | 42% |

Reference: patent publication US4476125A, “Benzobisoxazinetetrones and anti-allergic use thereof” (USV Pharmaceutical Corporation, priority 1983, dated 1984)
